Data published in patent EP0776155B1, “DELIVERY OF EXOGENOUS CHEMICAL SUBSTANCES TO PLANT TISSUES” (MONSANTO COMPANY, priority 1994, dated 1996).

What was measured:
Assay type in all cases: in vivo
[1] = tested on: velvetleaf (Abutilon theophrasti, ABUTH); assay: Example 11: percent control, time between abrasion and glyphosate application varied (hours); settings: glyphosate rate (kg a.e./ha)
Description: In these Examples illustrative of the invention, velvetleaf (Abutilon theophrasti, ABUTH) seeds were planted in 4-inch (10.1 cm) square pots containing 100% silt loam soil to which 35 grams/cu ft (1.25 kg/m^3) IBDU fertilizer was added, and covered with a mix of 50% Rediearth plus 50% silt loam. The pots were sub-irrigated and the seedlings thinned after emergence to 2 plants per pot.
Abrasion was applied using propelled 200-mesh garnet exactly as described for Examples 1-9. The herbicide used in these Examples was glyphosate as its isopropylamine salt, applied as diluted MON 2139, exactly as described for Examples 1-9.
The time period between abrasion and herbicide application was varied as follows. In Example 11, all abrasion treatments were applied within a short period of time, and herbicide applications were made 2, 4 and 24 hours after abrasion. A set of abraded plants received no herbicide at any time. In addition, herbicide applications were made to unabraded plants at two times: (i) at the time of abrasion, and (ii) 24 hours after the time of abrasion. In Example 12, all herbicide applications were made within a short period of time, and abrasion was applied 5, 2 and 1 days before herbicide application. In addition, herbicide application was made to unabraded plants.
Three replications were performed of every treatment. After treatment, all plants were placed in the greenhouse for the remainder of the experiment, and sub-irrigated. The first replicate was placed in one block in order of the treatment list for ease of viewing and the remaining replicates were randomly placed in two separate blocks.
After an interval of 12-14 days after herbicide application, a visual evaluation was performed to estimate herbicidal efficacy as percent control of treated plants compared to untreated check plants.

[2] = tested on: velvetleaf (Abutilon theophrasti, ABUTH); assay: Example 50: percent control, KOH chemical corrosive or garnet abrasion then glyphosate spray; settings: 11 days after glyphosate application
Description: In this Example illustrative of the invention, velvetleaf (Abutilon theophrasti, ABUTH) seeds were planted in 4-inch (10.1-cm) square pots filled with a soil mix consisting of 50% Metromix 350 plus 50% silt loam soil to which 100 g/cu ft (3.57 kg/m^3) Osmocote fertilizer were added, and the seeds were covered with the same soil mix without added fertilizer. […] The same settings were maintained before and after treatment.
Physical injury in this Example was inflicted on the above-ground portions of the plants, 17 days after planting, by a propelled chemical corrosive, a 2.5% weight/weight aqueous potassium hydroxide (KOH) solution. This solution was applied using a track sprayer calibrated to deliver 20 gallons/acre (187 liters/ha) with an 8002E nozzle having a 50-mesh screen, 16 inches (41 cm) above the plant canopy. Plants were allowed to dry for 1 hour after KOH treatment. Other plants received injury by abrasion using a hand-held Sears Craftsman™ sandblaster as described in Examples 1-9. A third set of plants received no abrasion or corrosion with KOH.
(§1) Plants were then assigned to different herbicide treatments in a factorial experimental design with 3 replications. All plants for each herbicide treatment were sprayed at the same time using a track sprayer calibrated to deliver 20 gallons/acre (187 liters/ha) water with an 8002E nozzle having a 50-mesh screen, 16 inches (41 cm) above the plant canopy. In these Examples the herbicide used was glyphosate as its isopropylamine salt, in the form of the aqueous concentrate formulation MON 2139 of Monsanto Company. Spray solutions were made from stock solutions prepared by dilution of MON 2139 in water.
After an interval of 11 days, a visual evaluation was performed to estimate herbicidal efficacy as percent control of treated plants compared to untreated check plants.

[3] = tested on: common lambsquarter (Chenopodium album, CHEAL); assay: Example 46: percent control, various propelled particulate abrasives, glyphosate spray; settings: glyphosate 0.11 kg a.e./ha, 200-mesh
Description: In this Example illustrative of the invention, common lambsquarter (Chenopodium album, CHEAL) seeds were planted in 4-inch (10.1-cm) square pots filled with a soil mix consisting of 50% Metromix 350 plus 50% silt loam to which 100 g/cu ft (3.57 kg/m^3) Osmocote fertilizer were added, and the seeds were covered with the same soil mix without added fertilizer. […] The same settings were maintained before and after treatment.
Physical injury in this Example was inflicted on the above-ground portions of the plants, approximately 2 weeks after planting, by various propelled particulate abrasives. This was applied using the same sandblaster as used in Example 47. For this Example, air pressure was maintained at 40 lb/sq inch (276 kiloPascals), the nozzle was set 16 inches (41 cm) above the plant canopy, track speed was under 1 mile/hour (1.6 km/hr) and one pass was made with the sandblaster. […] Some plants received no abrasion.
Materials used as abrasive agents in this study were: • garnet, 200-mesh as used in Example 47 • glass cullet, 1040 supplied by Universal • glass cullet, 1035 supplied by Universal • aluminum oxide type B, 120-mesh • white silica sand, 1.0 profile size, supplied by Unimin • glass beads, 140-270 mesh • Scott's Lawn & Garden fertilizer granules ground to a fine powder using a Retsch 2M-1 mill
as §1, with “with 2” for “with 3”, “(187 liters/hectare)” for “(187 liters/ha)”
After an interval of 12 days, a visual evaluation was performed to estimate herbicidal efficacy as percent control of treated plants compared to untreated check plants.

Structure (SMILES): O=C(O)CNCP(=O)(O)O [glyphosate, N-phosphonomethylglycine]
- percent control of ABUTH 14 days after glyphosate application ([1]; abraded before 0 h, glyphosate 0.056 kg a.e./ha): 70%
- percent control of ABUTH 14 days after glyphosate application ([1]; abraded before 0 h, glyphosate 0.11 kg a.e./ha): 78%
- percent control of ABUTH 14 days after glyphosate application ([1]; abraded before 2 h, glyphosate 0.056 kg a.e./ha): 73%
- percent control of ABUTH 14 days after glyphosate application ([1]; abraded before 2 h, glyphosate 0.11 kg a.e./ha): 85%
- percent control of ABUTH 14 days after glyphosate application ([1]; abraded before 4 h, glyphosate 0.056 kg a.e./ha): 79%
- percent control of ABUTH 14 days after glyphosate application ([1]; abraded before 4 h, glyphosate 0.11 kg a.e./ha): 94%
- percent control of ABUTH 14 days after glyphosate application ([1]; abraded before 24 h, glyphosate 0.056 kg a.e./ha): 45%
- percent control of ABUTH 14 days after glyphosate application ([1]; abraded before 24 h, glyphosate 0.11 kg a.e./ha): 76%
- percent control of ABUTH ([2]; glyphosate rate 0.0140 kg a.e./ha, injury by abrasion): 30%
- percent control of ABUTH ([2]; glyphosate rate 0.0140 kg a.e./ha, injury by corrosion (KOH)): 7%
- percent control of ABUTH ([2]; glyphosate rate 0.0140 kg a.e./ha, no physical injury): 0%
- percent control of ABUTH ([2]; glyphosate rate 0.028 kg a.e./ha, injury by abrasion): 70%
- percent control of ABUTH ([2]; glyphosate rate 0.028 kg a.e./ha, injury by corrosion (KOH)): 13%
- percent control of ABUTH ([2]; glyphosate rate 0.028 kg a.e./ha, no physical injury): 0%
- percent control of ABUTH ([2]; glyphosate rate 0.056 kg a.e./ha, injury by abrasion): 75%
- percent control of ABUTH ([2]; glyphosate rate 0.056 kg a.e./ha, injury by corrosion (KOH)): 48%
- percent control of ABUTH ([2]; glyphosate rate 0.056 kg a.e./ha, no physical injury): 3%
- percent control of ABUTH ([2]; glyphosate rate 0.11 kg a.e./ha, injury by abrasion): 83%
- percent control of ABUTH ([2]; glyphosate rate 0.11 kg a.e./ha, injury by corrosion (KOH)): 73%
- percent control of ABUTH ([2]; glyphosate rate 0.11 kg a.e./ha, no physical injury): 0%
- percent control of ABUTH ([2]; glyphosate rate 0.22 kg a.e./ha, injury by abrasion): 96%
- percent control of ABUTH ([2]; glyphosate rate 0.22 kg a.e./ha, injury by corrosion (KOH)): 85%
- percent control of ABUTH ([2]; glyphosate rate 0.22 kg a.e./ha, no physical injury): 81%
- percent control of ABUTH ([2]; glyphosate rate 0.45 kg a.e./ha, injury by abrasion): 99%
- percent control of ABUTH ([2]; glyphosate rate 0.45 kg a.e./ha, injury by corrosion (KOH)): 91%
- percent control of ABUTH ([2]; glyphosate rate 0.45 kg a.e./ha, no physical injury): 87%
- percent control of ABUTH ([2]; glyphosate rate 0.89 kg a.e./ha, no physical injury): 100%
- percent control of CHEAL 12 days after glyphosate application ([3]; aluminum oxide, abrasive rate* (kg/ha) 143, calculated based on garnet): 46%
- percent control of CHEAL 12 days after glyphosate application ([3]; aluminum oxide, abrasive rate* (kg/ha) 256, calculated based on garnet): 50%
- percent control of CHEAL 12 days after glyphosate application ([3]; fertilizer, abrasive rate* (kg/ha) 143, calculated based on garnet): 25%
- percent control of CHEAL 12 days after glyphosate application ([3]; fertilizer, abrasive rate* (kg/ha) 256, calculated based on garnet): 34%
- percent control of CHEAL 12 days after glyphosate application ([3]; garnet, abrasive rate* (kg/ha) 143): 52%
- percent control of CHEAL 12 days after glyphosate application ([3]; garnet, abrasive rate* (kg/ha) 256): 37%
- percent control of CHEAL 12 days after glyphosate application ([3]; glass beads, abrasive rate* (kg/ha) 143, calculated based on garnet): 62%
- percent control of CHEAL 12 days after glyphosate application ([3]; glass beads, abrasive rate* (kg/ha) 256, calculated based on garnet): 43%
- percent control of CHEAL 12 days after glyphosate application ([3]; glass cullet, 1035, abrasive rate* (kg/ha) 143, calculated based on garnet): 28%
- percent control of CHEAL 12 days after glyphosate application ([3]; glass cullet, 1035, abrasive rate* (kg/ha) 256, calculated based on garnet): 48%
- percent control of CHEAL 12 days after glyphosate application ([3]; glass cullet, 1040, abrasive rate* (kg/ha) 143, calculated based on garnet): 38%
- percent control of CHEAL 12 days after glyphosate application ([3]; glass cullet, 1040, abrasive rate* (kg/ha) 256, calculated based on garnet): 20%
- percent control of CHEAL 12 days after glyphosate application ([3]; white silica sand, abrasive rate* (kg/ha) 143, calculated based on garnet): 38%
- percent control of CHEAL 12 days after glyphosate application ([3]; white silica sand, abrasive rate* (kg/ha) 256, calculated based on garnet): 50%
